According to PMC6832221 (Viruses, 2019):
Like-named read-outs stand apart in the source and are kept apart here.

Key:
[1] = cited from earlier work
HCV replication = tested on: HCV replication; set-up: method as in ref 14 = [14]; conditions: previous study, cited from earlier work
[2] = tested on: genotype 1b HCV replication (Bart79I); assay: GT 1b RT-PCR in Bart79I replicon Huh7.5 cells; type: cell-based, Hepatitis C virus
[3] = tested on: HCV NS3 protein expression (genotype 2a); assay: GT 2a Western blot of HCV NS3 protein in J6/JFH1 RNA-transfected Huh7.5 cells; type: cell-based, Hepatitis C virus; conditions: for T1/2 (time required for 50% reduction of the HCV NS3 protein): compound at 10 μM, Western blot, Huh7.5-J6/JFH1 (genotype 2a)
[4] = tested on: genotype 2a HCV replication (Rluc-J6/JFH1); assay: GT 2a luciferase reporter assay in Rluc-J6/JFH1 RNA-transfected Huh7.5 cells; type: cell-based, Hepatitis C virus
in vitro = type: cell-based; conditions: human; Table 1 summary; read-out: CC50 (M), GT 2a luciferase reporter assay
[5] = tested on: HCV NS3 protein level (genotype 1b); assay: GT 1b Western blot of HCV protein in Bart79I RNA-transfected Huh7.5 cells; type: cell-based, Hepatitis C virus; conditions: for T1/2 (time for 50% reduction of HCV protein): compound at 10 μM, Western blot, Huh7.5-Bart79I (genotype 1b)
[6] = target: T1, genotype 1b HCV NS3 helicase (Hepatitis C virus genotype 1b, UniProt Q9WMX2); assay: Graphene oxide (GO)-based NS3 helicase inhibition assay; type: biochemical
T1 construct: 2 nM of HCV NS3 helicase in a total volume of 60 μL
T1 sequence (Q9WMX2 1027-1657): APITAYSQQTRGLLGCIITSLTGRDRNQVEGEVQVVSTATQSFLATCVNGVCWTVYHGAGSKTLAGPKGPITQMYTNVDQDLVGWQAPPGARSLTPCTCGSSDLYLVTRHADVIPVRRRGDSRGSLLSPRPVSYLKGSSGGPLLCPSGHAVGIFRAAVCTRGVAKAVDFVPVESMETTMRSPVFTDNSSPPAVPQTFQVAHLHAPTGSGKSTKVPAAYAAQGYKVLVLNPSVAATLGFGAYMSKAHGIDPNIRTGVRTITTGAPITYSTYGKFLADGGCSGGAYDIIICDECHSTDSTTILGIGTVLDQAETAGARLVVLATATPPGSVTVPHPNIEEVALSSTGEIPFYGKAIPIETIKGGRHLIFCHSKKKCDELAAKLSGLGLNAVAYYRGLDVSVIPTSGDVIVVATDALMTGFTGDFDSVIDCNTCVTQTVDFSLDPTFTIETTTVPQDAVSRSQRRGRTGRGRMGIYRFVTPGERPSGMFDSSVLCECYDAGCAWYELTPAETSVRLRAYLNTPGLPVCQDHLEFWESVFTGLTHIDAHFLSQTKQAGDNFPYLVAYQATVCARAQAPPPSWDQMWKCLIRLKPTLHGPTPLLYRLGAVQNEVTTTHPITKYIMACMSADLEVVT

[7] = tested on: genotype 2a HCV replication (J6/JFH1); assay: GT 2a RT-PCR in J6/JFH1 RNA-transfected Huh7.5 cells; type: cell-based, Hepatitis C virus
[8] = In vivo pharmacokinetic study of SVF in mice; conditions: male, ICR, mouse, plasma
Huh7.5 cells = assay: in vitro; type: cell-based; conditions: Table 1 summary; read-out: CC50 (M), GT 2a luciferase reporter assay
[9] = set-up: method as in ref 25 = [25]; conditions: mice; cited from earlier work
[10] = set-up: method as in ref 14 = [14]; conditions: previous study; cited from earlier work
viral helicase NS3 = target: viral helicase NS3; set-up: method as in ref 14 = [14]; conditions: previous study; cited from earlier work
[11] = read-out: EC50 (M), GT 1b RT-PCR, Table 1 summary
[12] = read-out: EC50 (M), GT 2a Western blot, Table 1 summary
[13] = Hepatitis C virus, GETYPE2A|GT2A, Huh7.5, read-out: EC50 (M), GT 2a luciferase reporter assay, Table 1 summary
[14] = Hepatitis C virus, Huh7.5, read-out: EC50 (M), GT 1b Western blot
[15] = read-out: EC50 (M), GT 2a RT-PCR, Table 1 summary

In the case of `Oc1ccc(/C=C/c2cc(O)cc3c2C(c2cc(O)cc(O)c2)C(c2ccc(O)cc2)O3)cc1` (stereo not shown) [viniferin], the oral bioavailability [1] is given as “less than 1%” and the EC50 (HCV replication; read-out: EC50 value for inhibiting HCV replication in vitro) is given as 1 µM.

For `Oc1ccc(/C=C/c2cc(O)cc3c2C(c2cc(O)cc(O)c2)C(c2ccc(O)cc2)O3)cc1` (stereo not drawn) [EVF, (+)-ε-viniferin], the EC50 [2, 11] was 7e-06 M, the “T1/2 (time required for 50% reduction of the HCV NS3 protein)” value [3] was 35.1 h and the EC50 [3, 12] was 1.2e-06 M. For the same molecule, the EC50 [4, 13] was 1e-07 M, the “fold more antiviral activity than SVF” value ([4]; genotype 2a renilla luciferase-based HCV replication assay) was 2.0 fold and the CC50 at 72 h (in vitro) was over 1e-05 M. For the same molecule, the EC50 [5, 14] was 9e-07 M, the “T1/2 (time for 50% reduction of HCV protein)” value [5] was 58.2 h and the IC50 ([6]; Cy5-dsDNA substrate, 2 nM HCV NS3 helicase, fluorescence Ex/Em 650/675 nm, read-out: IC50 (half maximal inhibitory concentration), NS3 helicase) was 0.0587 µM. For the same molecule, the “fold more antiviral activity than SVF” value ([7]; genotype 2a RT-PCR-based HCV replication assay) was 3.2 fold and the EC50 [7, 15] was 2.9e-06 M.

With `CC(=O)Oc1ccc(/C=C/c2cc(OC(C)=O)cc3c2C(c2cc(OC(C)=O)cc(OC(C)=O)c2)C(c2ccc(OC(C)=O)cc2)O3)cc1` (racemic) [SVF-5Ac, penta-acetylated (±)- -viniferin] the EC50 ([2]; Hepatitis C virus, GETYPE1B|GT1B, Huh7.5, read-out: EC50 (M), GT 1b RT-PCR, Table 1 summary) was 1.04e-05 M, the EC50 ([3]; Hepatitis C virus, GETYPE2A|GT2A, Huh7.5, read-out: EC50 (M), GT 2a Western blot, Table 1 summary) was 1e-06 M and the “T1/2 (time required for 50% reduction of the HCV NS3 protein)” value [3] was over 72 h. It also gave an EC50 [4, 13] of 2.4e-06 M, a CC50 at 72 h (in vitro) of over 1e-05 M and an EC50 [5, 14] of 8e-07 M. The “T1/2 (time for 50% reduction of HCV protein)” value [5] was 29.6 h and the EC50 ([7]; Hepatitis C virus, GETYPE2A|GT2A, Huh7.5, read-out: EC50 (M), GT 2a RT-PCR, Table 1 summary) was 4.7e-06 M.

For `Oc1ccc(/C=C/c2cc(O)cc3c2C(c2cc(O)cc(O)c2)C(c2ccc(O)cc2)O3)cc1` (racemic) [SVF, (±)- -viniferin], the EC50 [2, 11] was 1.7e-06 M, the Cmax ([8]; ip, intraperitoneal dose of 15 mg/kg, read-out: Cmax) was 2.13 ± 0.403 µg/mL and the Tmax ([8]; oral dose of 50 mg/kg) was 0.375 h. For the same molecule, the Cmax ([8]; oral dose of 50 mg/kg, read-out: mean Cmax) was 0.0535 ± 0.0282 µg/mL, the “T1/2 (time required for 50% reduction of the HCV NS3 protein)” value [3] was 37.1 h and the EC50 [3, 12] was 6.4e-06 M. For the same molecule, the EC50 ([4]; read-out: EC50 (M), GT 2a luciferase reporter assay, Table 1 summary) was 2e-07 M, the CC50 (Huh7.5 cells) was over 1e-05 M and the “T1/2 (time for 50% reduction of HCV protein)” value [5] was 13.1 h. The EC50 ([5]; read-out: EC50 (M), GT 1b Western blot, Table 1 summary) was 9e-07 M, the oral bioavailability [9] was “below 1%” and the EC50 [7, 15] was 9.3e-06 M.

With `Oc1ccc(/C=C/c2cc(O)cc(O)c2)cc1` [resveratrol, reference compound] the “dose-dependent increase of fluorescence (helicase inhibition)” value ([6]; negative control, up to a concentration of 10 μM) was “did not”.

For `Oc1ccc([C@H]2Oc3cc(O)cc(/C=C/c4ccc5c(c4)[C@@H](c4cc(O)cc6c4[C@H](c4cc(O)cc(O)c4)[C@@H](c4ccc(O)cc4)O6)[C@H](c4ccc(O)cc4)O5)c3[C@@H]2c2cc(O)cc(O)c2)cc1` [vitisin B], the CC50 [10] is given as over 10 µM, the IC50 (viral helicase NS3) is given as 0.003 µM and the EC50 (HCV replication; read-out: EC50, anti-HCV activity) is given as 0.006 µM.
